From ChEMBL document CHEMBL5029153, “Structural Insights into Notum Covalent Inhibition” (J Med Chem, 2021)

Legend:
[1] = molecular target: T1, Palmitoleoyl-protein carboxylesterase NOTUM (Homo sapiens, UniProt Q6P988); assay: Binding affinity to glycosylated Notum 1 (unknown origin) assessed as change in melting temperature at 30 uM by SYPRO orange dye based thermal shift assay
T1 sequence (Q6P988 whole entry): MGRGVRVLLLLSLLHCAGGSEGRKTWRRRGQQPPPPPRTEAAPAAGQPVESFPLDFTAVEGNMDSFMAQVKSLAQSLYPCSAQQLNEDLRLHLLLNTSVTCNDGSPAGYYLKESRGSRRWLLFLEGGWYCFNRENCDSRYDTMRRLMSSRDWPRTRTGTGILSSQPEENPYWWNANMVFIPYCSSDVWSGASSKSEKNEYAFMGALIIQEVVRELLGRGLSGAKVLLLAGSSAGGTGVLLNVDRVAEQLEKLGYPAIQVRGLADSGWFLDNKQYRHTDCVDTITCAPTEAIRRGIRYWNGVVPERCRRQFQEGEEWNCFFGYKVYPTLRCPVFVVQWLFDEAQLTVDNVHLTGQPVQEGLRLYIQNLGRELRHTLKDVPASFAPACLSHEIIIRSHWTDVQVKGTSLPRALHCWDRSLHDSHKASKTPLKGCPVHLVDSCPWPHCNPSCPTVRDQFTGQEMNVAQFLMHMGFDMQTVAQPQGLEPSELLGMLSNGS

[2] = molecular target: T1, Palmitoleoyl-protein carboxylesterase NOTUM; assay: Binding affinity to glycosylated Notum 1 (unknown origin) assessed as maximum change in melting temperature at 1 mM by SYPRO orange dye based thermal shift assay; conditions: 1000 µM
[3] = molecular target: T1, Palmitoleoyl-protein carboxylesterase NOTUM; assay: Inhibition of Notum 1 (unknown origin) expressed in HEK293 cells harbouring TCF/LEF luciferase reporter gene assessed as modulation of Wnt/beta-catenin signalling pathway preincubated with recombinant Wnt-3A for 1 hr followed by addition to reporter cell plate incubated overnight by luminescence based microplate reader analysis
[4] = molecular target: T1, Palmitoleoyl-protein carboxylesterase NOTUM; assay: Binding affinity to glycosylated Notum 1 (unknown origin) assessed as change in melting temperature at 8 uM by SYPRO orange dye based thermal shift assay

Row | deltaTm [1] [°C] | deltaTm [2] [°C] | EC50 [3] [µM] | deltaTm [4] [°C] | SMILES
1 | 1 | 2.5 | – | – | O=C(O)CCC(=O)N1CCc2ccccc21
2 | – | – | 0.3 | – | O=C(CCC(=O)N1CCc2ccccc21)OCC(F)F
3 | 5 | 10 | – | 2 | COC(=O)CCC(=O)N1CCc2ccccc21
